Consider 1 compound from patent US11813275B2, “Pharmaceutical composition, methods for treating and uses thereof” (Boehringer Ingelheim International GmbH, priority 2013, dated 2023).

The structures appear in SMILES notation. “Also recorded” adds a separate entry of the source.

The subject of one data set is NADPH oxidase. Nature of the data set: NADPH oxidase activity in cardiac tissue. The format is in vivo, Wistar rats. The conditions noted are these: STZ diabetic rats, 7 weeks of treatment. The protocol: (§1) Type I diabetes in Wistar rats (8 weeks old, 250-300 g) are induced by a single i.v. injection of STZ (60 mg/kg). The blood glucose level is measured 3 days after STZ injection (to test whether diabetes was induced) and on the day of sacrifice. One week after injection empagliflozin (SGLT2-i) was administered with drinking water for additional 7 weeks (10 and 30 mg/kg/d p.o.).

Data set [1] deals with leukocyte-derived reactive oxygen species (ROS) in blood. The data set is described as follows: PDBu/zymosan A-stimulated chemiluminescence, oxidative burst in blood. The data set is classed as in vivo, Wistar rats. Particulars: PDBu or zymosan A stimulation; STZ diabetic rats, 7 weeks, low (10 mg/kg) or high (30 mg/kg) dose. The protocol:
as §1
FIGS. 3-9: Quantification of reactive oxygen species of (ROS) from leukocyte upon stimulation with zymosan A (ZymA). After 7 weeks of treatment, ROS production in blood is reduced either with the low or high dose of empagliflozin to level close to none diabetic animal.

Data set [2] can be described thus: Serum levels of insulin and interferon-gamma in STZ diabetic rats. The format is in vivo, Wistar rats. Particulars: 7 weeks of treatment. The protocol:
as §1

The test system of the next data set is isolated aortic rings. The data set is described as follows: Isometric tension recordings of isolated aortic rings (vasorelaxation). The data set is classed as in vivo, Wistar rats. The protocol: as §1
FIG. 2: A: Endothelial dependant vasorelaxation. […] B: Endothelial independent vasorelaxation obtain with glyceryl trinitrate (GTN) a NO donor.

The test system of a further data set is patients with T1D. Nature of the data set: Blood pressure, arterial stiffness, HRV and adrenergic mediators in normotensive T1D patients under clamped euglycemia and hyperglycemia. The data set is classed as in vivo, human. The protocol: Blood pressure, arterial stiffness, heart rate variability (HRV) and circulating adrenergic mediators were measured during clamped euglycemia and hyperglycemia in 40 normotensive patients with T1D. Studies were repeated after 8 weeks of empagliflozin (25 mg daily).
Augmentation index (Alx) for the radial and carotid arteries as well as a derived aortic Alx and carotid, radial and femoral pulse wave velocities (PWV) are measured for assessment of arterial stiffness using a SphygmoCor® System (AtCor Medical Inc., Itasca, Ill.).

Data set [3] concerns superoxide formation in aortic vessels. The data set is described as follows: DHE staining of aortic cryosections (vascular superoxide formation). The data set is classed as in vivo, Wistar rats. The conditions noted are these: STZ diabetic rats, 7 weeks of treatment. How it is done: as §1
Data set [4] relates to STZ-induced diabetes mellitus (Type I) in rat. Nature of the data set: Blood glucose and weight gain in STZ-induced type I diabetic rats. The data set is classed as in vivo, Wistar rats. The conditions noted are these: 10 and 30 mg/kg/d p.o. in drinking water for 7 weeks. The protocol:
as §1

The subject of another data set is aortic wall. Nature of the data set: Aortic wall thickness and collagen content by sirius red staining. The format is in vivo, Wistar rats. Particulars: STZ diabetic rats. How it is done: Aortic wall thickness and collagen content were also measured microscopically after sirius red staining. Aortic segments were fixed in parafomaldehyde (4%) and paraffin-embedded. Sirius red staining for vascular fibrosis was performed with paraffin-embedded samples of aortic tissue upon de-paraffination. Afterwards the nuclei were prestained with hemalum. Then samples were stained for 1 hour in 0.1% with Sirius red solution containing saturated picric acid (1.2%). Finally, tissue samples were dehydrated with 70%, 96% and 100% isopropanol and coverslipped with a solution of polymers in xylene. 60-70 measurements were made per sample, n=6-7 animals/groups.
FIGS. 16A and 16B: Microscopic determination of aortic wall thickness and collagen content by sirius red staining of aortic paraffinated sections. Quantification (FIG. 16A) and representative microscope images (FIG. 16B).

The next data set concerns ALDH-2. The data set is described as follows: Liver ALDH-2 activity. Particulars: STZ diabetic rats, 7 weeks of treatment. The format is in vivo, Wistar rats. The protocol:
as §1

Consider `OC[C@H]1O[C@@H](c2ccc(Cl)c(Cc3ccc(O[C@H]4CCOC4)cc3)c2)[C@H](O)[C@@H](O)[C@@H]1O` [empagliflozin, 1-chloro-4-(β-D-glucopyranos-1-yl)-2-[4-((S)-tetrahydrofuran-3-yloxy)-benzyl]-benzene], for which, in the data set with NADPH oxidase, the “NADPH oxidase activity in the cardiac tissue” value was “diminished”. In [1], the “oxidative stress in blood / ROS production from leukocytes” value was “reduced oxidative stress”. In data set [2] (STZ diabetic rats), the insulin level entry is “restore insulin level”. For the same compound, the “interferon γ (marker of inflammation)” value in data set [2] (elevation in STZ diabetic rats) is on record as “highly diminished or suppressed”. For the same compound, in the data set with isolated aortic rings (isolated aortic rings after 7 weeks of treatment, glyceryl trinitrate as NO donor), the “endothelial independent vasorelaxation with GTN: effect on smooth muscle cells” value is given as “absence of deleterious effect”. The “endothelial function (endothelial dependent vasorelaxation)” value in the data set on isolated aortic rings (isolated aortic rings of STZ diabetic rats after 7 weeks of treatment) is given as “normalization of endothelial function; also recorded: improvement of endothelial function”. In the data set on patients with T1D (both glycemic conditions, 8 weeks of 25 mg daily, p≤0.0001), the “carotid-radial pulse wave velocity” value is listed as “decreased significantly”. The same compound gave a systolic blood pressure in the data set with patients with T1D (clamped euglycemia, after 8 weeks of 25 mg daily, before treatment 111±9, p=0.0187) of 109±9 mmHg. In addition, the “augmentation index, aortic (derived)” value in the data set on patients with T1D (clamped euglycemia, after 8 weeks of 25 mg daily, before treatment +0.1±13.4, p<0.0001) is recorded as −6.2±14.3%. Besides, in the data set with patients with T1D (clamped euglycemia, after 8 weeks of 25 mg daily, before treatment +1.3±17.0, p<0.0001), the “augmentation index, carotid” value is given as −5.7±17.0%. Moreover, the “augmentation index, radial” value in the data set on patients with T1D (clamped euglycemia, after 8 weeks of 25 mg daily, before treatment −52±16, p<0.0001) is −57±17%. Besides, the blood pressure effects result in the data set on patients with T1D (clamped hyperglycemia, 8 weeks of 25 mg daily) is on record as “not significant”. Further, the “carotid-femoral pulse wave velocity” value in the data set on patients with T1D (clamped hyperglycemia, after 8 weeks of 25 mg daily, before treatment 5.7±1.1, p=0.0017) is on record as 5.2±0.9 m/s. In the data set on patients with T1D (patients with uncomplicated T1D, 8 weeks of 25 mg daily), the “arterial stiffness (overall conclusion)” value is given as “reduces arterial stiffness”. Moreover, in data set [3], the “oxidative stress / superoxide formation in aortic vessels” value is recorded as “reduced oxidative stress”. Moreover, the blood glucose levels entry in data set [4] is reported as “distinct reduction”. Besides, in the data set on aortic wall, the aortic collagen content result is recorded as “normalized” and the aortic wall thickness entry was “normalized”. In addition, the “ALDH-2 activity (liver)” value in the data set with ALDH-2 is “partly restored”.
